How the values were obtained:
[1] = test system: Mycobacterium smegmatis ATCC 607; test: Antimicrobial activity, agar plate-cylinder method, bleomycin A2 as standard (1,000 u/mg); assay type: cell-based; details: Examples, Step A; hydrochloride, copper-containing form; bleomycin A2 = 1,000 u/mg
[2] = test system: Mycobacterium smegmatis ATCC 607; test: as above; assay type: cell-based; details: copper-free form; for Antimicrobial potency: bleomycin A2 = 1,000 u/mg; for Antimicrobiral potency: Table 5, relative to bleomycin A2 = 1,000 u/mg
Experimental: Typical examples of the biological activities measured on cleomycins (copper-free form) are illustrated below.
Comparison was made with the relevant antibiotics bleomycins. The relative antimicrobial potency (u/mg) against Mycobacterium smegmatis ATCC 607 was measured by agar plate-cylinder method using bleomycin A2 as a standard (1,000 u/mg).
(Note: The antimicrobial potency was determined by taking bleomycin
A2 as 1,000 μ/mg and using Mycobacterium smegmatis ATCC 607 as a
test bacterium. Herinafter, the same was applied.)

[3] = Solubility (physical and chemical properties, Tables 4-1 and 4-2); details: hydrochloride, also soluble in dimethylformamide, dimethylsulfoxide, and methanol
[4] = test system: HeLa S3 cells; test: Activity on cultured HeLa S3 cells (growth inhibition); assay type: cell-based
Experimental: Fifty percent inhibitory cocentration (LD50) was determined on a test compound cleomycin (No. 33) and on a reference compound bleomycin A2, from the percent of growth inhibition measured on HeLa S3 cells after the cells had been cultured in the presence of each of the compounds.

[5] = Examples, Step B, hydrochloride

Structure (SMILES)	Antimicrobial potency [1]	Antimicrobial potency [2, 5]	Antimicrobiral potency [2]	further results
CCCCNCCCNCCCNC(=O)c1csc(-c2csc(CCNC(=O)C(NC(=O)C(C)C(O)C(C)NC(=O)C(NC(=O)c3nc(C(CC(N)=O)NCC(N)C(N)=O)nc(N)c3C)C(OC3OC(CO)C(O)C(O)C3OC3OC(CO)C(O)C(OC(N)=O)C3O)c3cnc[nH]3)C3(O)CC3)n2)n1 (stereo not shown)	8,130 u/mg	7,942 u/mg		
Cc1c(N)nc(C(CC(N)=O)NCC(N)C(N)=O)nc1C(=O)NC(C(=O)NC(C)C(O)C(C)C(=O)NC(C(=O)NCCc1nc(-c2nc(C(=O)NCCCN(C)CCCN)cs2)cs1)C1(O)CC1)C(OC1OC(CO)C(O)C(O)C1OC1OC(CO)C(O)C(OC(N)=O)C1O)c1cnc[nH]1 (stereo not shown) [Compound No. 20, 3-[N-methyl-N-(3-aminopropyl)]aminopropylaminocleomycin]	2,300 u/mg	2,273 u/mg	2,273 u/mg	
Cc1c(N)nc(C(CC(N)=O)NCC(N)C(N)=O)nc1C(=O)NC(C(=O)NC(C)C(O)C(C)C(=O)NC(C(=O)NCCc1nc(-c2nc(C(=O)NCCCCNC(=N)N)cs2)cs1)C1(O)CC1)C(OC1OC(CO)C(O)C(O)C1OC1OC(CO)C(O)C(OC(N)=O)C1O)c1cnc[nH]1 (stereo not shown) [4-guanidinobutylaminocleomycin]	3,350 u/mg	3,262 u/mg		
Cc1c(N)nc(C(CC(N)=O)NCC(N)C(N)=O)nc1C(=O)NC(C(=O)NC(C)C(O)C(C)C(=O)NC(C(=O)NCCc1nc(-c2nc(C(=O)NCCCNCCCCN)cs2)cs1)C1(O)CC1)C(OC1OC(CO)C(O)C(O)C1OC1OC(CO)C(O)C(OC(N)=O)C1O)c1cnc[nH]1 (stereo not shown)	3,520 u/mg	3,575 u/mg		
CCCCNCCCNCCCNC(=O)c1csc(-c2csc(CCNC(=O)C(NC(=O)C(C)C(O)C(C)NC(=O)C(NC(=O)c3nc(C(CC(N)=O)NCC(N)C(N)=O)nc(N)c3C)C(OC3OC(CO)C(O)C(O)C3OC3OC(CO)C(O)C(OC(N)=O)C3O)c3cnc[nH]3)C3(O)CC3)n2)n1 (stereo not shown) [compound 11, 3-(3-n-butylaminopropylamino)propylaminocleomycin]			7,942 u/mg	Solubility ([3]; copper-containing form): Soluble in water; Solubility ([3]; copper-free form): Soluble in water
Cc1c(N)nc(C(CC(N)=O)NCC(N)C(N)=O)nc1C(=O)NC(C(=O)NC(C)C(O)C(C)C(=O)NC(C(=O)NCCc1nc(-c2nc(C(=O)NCCC[S+](C)C)cs2)cs1)C(C)O)C(OC1OC(CO)C(O)C(O)C1OC1OC(CO)C(O)C(OC(N)=O)C1O)c1cnc[nH]1 (stereo not shown) [Bleomycin A2, reference compound]				IC50 ([4]; Homo sapiens, HeLa S3, read-out: LD50 (fifty percent inhibitory concentration, growth inhibition)): 0.73 µg/mL
Cc1c(N)nc(C(CC(N)=O)NCC(N)C(N)=O)nc1C(=O)NC(C(=O)NC(C)C(O)C(C)C(=O)NC(C(=O)NCCc1nc(-c2nc(C(=O)NCCCNC(C)c3ccccc3)cs2)cs1)C1(O)CC1)C(OC1OC(CO)C(O)C(O)C1OC1OC(CO)C(O)C(OC(N)=O)C1O)c1cnc[nH]1 (stereo not shown) [Compound No. 33, 3-[(s)-1'-phenylethylamino]propylaminocleomycin]	11,300 u/mg		10,949 u/mg	anti-HeLa action compared with bleomycin A2 (in words) ([4]; copper-free hydrochloride): activity nearly equal to that of bleomycin A2; Antimicrobial potency ([2]; Example 1, Step B, sulfate): 10,949 u/mg
Cc1c(N)nc(C(CC(N)=O)NCC(N)C(N)=O)nc1C(=O)NC(C(=O)NC(C)C(O)C(C)C(=O)NC(C(=O)NCCc1nc(-c2nc(C(=O)NCCC[S+](C)C)cs2)cs1)C1(O)CC1)C(OC1OC(CO)C(O)C(O)C1OC1OC(CO)C(O)C(OC(N)=O)C1O)c1cnc[nH]1 (stereo not shown) [compound 1, 3-s,s-dimethylmercaptopropylaminocleomycin]	1,360 u/mg	1,320 u/mg	1,320 u/mg	Solubility ([3]; copper-containing form): Soluble in water; Solubility ([3]; copper-free form): Soluble in water
